Measurements from publication PMC9101684, “Hempseed (Cannabis sativa) Peptide H3 ([sequence]) Exerts Cholesterol-Lowering Effects in Human Hepatic Cell Line” (Nutrients, 2022).
Like-named read-outs stand apart in the source and are kept apart here.

Legend:
HepG2 cells = assay: Fluorescent LDL uptake by HepG2 cells; type: cell-based, human; conditions: pravastatin 1.0 µM, 24 h, then LDL-DyLight 550 for 2 h at 37 °C, fluorescence, versus control; p < 0.0001; mean ± S.D., three experiments in triplicate
Method: treatment, the culture medium was replaced with 50 µL/well LDL-DyLight™ 550 working solution (Cayman Chemical Company, Ann Arbor, MI, USA) prepared in DMEM without FBS and antibiotics. The cells were additionally incubated for 2 h at 37 °C and then the culture medium was aspirated and replaced with PBS (100 µL/well). The degree of LDL uptake was measured using the Synergy H1 fluorescent plate reader (Winooski, VT, USA) (excitation and […]

HMGCoAR [1] = assay: Western blot, HMGCoAR protein in HepG2 cells; type: cell-based, human; conditions: pravastatin 1.0 µM, 24 h, versus control; p < 0.01; mean ± S.D., three independent experiments in duplicate
Method: (§1) Immunoblotting experiments were performed using an optimized protocol. Details are available in the Supplementary Materials. […]
(§2) 2.7. Western Blot Analysis
(§3) Immunoblotting experiments were performed using optimized protocol […]
(§4) µM of H3 for 24 h. After each treatment, the supernatants were collected and stored at -20 °C; cells were scraped in 40 µL ice-cold lysis buffer (RIPA buffer + inhibitor cocktail + 1:100 PMSF + 1:100 Na-orthovanadate + 1:1000 β-mercaptoethanol) and transferred in ice-cold microcentrifuge tubes. After centrifugation at 13,300 g for 15 min at 4 °C, the supernatants were recovered and transferred into new ice-cold tubes. […]
(§5) Cocktail) on ice for 20 min and then centrifuged 12000 rpm for 10 min at 4°C and the supernatant was collected (nucleus isolate). Total proteins were quantified […]
(§6) Sodium Dodecyl Sulfate-Polyacrylamide (SDS-PAGE) gel at 130 V for 45 min.
(§7) Subsequently, the gel was pre-equilibrated in H2O for 5 min at room temperature (RT) and transferred to a nitrocellulose membrane (Mini nitrocellulose Transfer Packs,) using a Trans-Blot Turbo at 1.3 A, 25 V for 7 min. Target proteins, on milk or BSA blocked membrane, were detected by primary antibodies as follows: anti-SREBP-2, anti-LDLR, anti-HMGCoAR, anti-PCSK9, anti HNF1-α, anti-p-HMGCoAR, anti-p-AMPK and anti-β-actin. […]

HNF1-α = assay: Western blot, HNF1-α in HepG2 cells; type: cell-based, human; conditions: pravastatin 1.0 µM, 24 h, versus control; p < 0.0001; mean ± S.D., three experiments in duplicate
Method: as §1, §2, §3, §4, §5, §6, §7

PCSK9 [2] = assay: ELISA, mature PCSK9 secreted by HepG2 cells; type: cell-based, human
PCSK9 [3] = assay: Western blot, intracellular PCSK9 in HepG2 cells; type: cell-based, human; conditions: pravastatin 1.0 µM, 24 h, versus control; p < 0.0001; mean ± S.D., three experiments in duplicate
Method: as §1, §2, §3, §4, §5, §6, §7

LDLR [4] = assay: In-Cell Western (ICW), LDLR localized on cellular membranes of HepG2 cells; type: cell-based, human; conditions: pravastatin 1.0 µM, 24 h, versus control, p < 0.0001, mean ± S.D., three experiments in triplicate
Method: For the experiments, a total of 3 × 10^4 HepG2 cells/well were seeded in 96-well plates. The following day, the cells were washed with PBS and then starved overnight (O/N) in DMEM without FBS nor antibiotics.
HMGCoAR were provided in the HMGCoAR Assay Kit (Sigma Aldrich SRL, Milan, Italy). The experiments were carried out following the manufacturer instructions at 37 °C. In particular, each reaction (200 µL) was prepared adding the reagents in the following order: 1 X assay buffer, a 10–1000 µM doses of H3 or vehicle (C), the NADPH (4 µL), the substrate solution (12 µL), and finally the HMGCoAR (catalytic domain) (2 µL). Subsequently, the samples were mixed and the absorbance at 340 nm read by the microplate reader Synergy H1
In-Cell Western (ICW) Assay
For the experiments, a total of 3 X 10 4 HepG2 cells/well were seeded in 96-well plates. The following day, cells were washed with PBS and then starved overnight (O/N) in DMEM without FBS and antibiotics.
Subsequently, they were fixed in 4% paraformaldehyde for 20 min at room temperature (RT). […] The reaction was stopped with 2 M H2SO4 and then the absorbance at 450 nm was measured using the microplate reader Synergy H1 (Winooski, VT, USA). After the read, cells were stained by adding 1 X Janus Green stain, incubating for 5 min at RT. […]

p-HMGCoAR = assay: Western blot, p-HMGCoAR (serine 872) in HepG2 cells; type: cell-based, human; conditions: pravastatin 1.0 µM, 24 h, versus control; p < 0.01; mean ± S.D., three independent experiments in duplicate
Method: as §1, §2, §3, §4, §5, §6, §7

LDLR [5] = assay: Western blot, total LDLR in HepG2 cells; type: cell-based, human; conditions: pravastatin 1.0 µM, 24 h, versus control; p < 0.001; mean ± S.D., three independent experiments in duplicate
Method: as §1, §2, §3, §4, §5, §6, §7

HMGCoAR [6] = system: HMGCoAR; parameters: method as in 5 sources, ref 24 = [24]; PMID 2513368; doi:10.1016/S0022-2275(20)38255-9; 24. Mosley S.T. Kalinowski S.S. Schafer B.L. Tanaka R.D. Tissue-selective acute effects of inhibitors of 3-hydroxy-3-methylglutaryl coenzyme A reductase on cholesterol biosynthesis in lens J. Lipid Re ||| ref 32 = [32]; PMID 25690031; doi:10.3390/ijms16024150; 32. Soares R.A.M. Mendonça S. De Castro L.Í.A. Menezes A.C.C.C.C. Arêas J.A.G. Major Peptides from Amaranth (Amaranthus cruentus) Protein Inhibit HMG-CoA Reductase Activity Int. J. Mol. Sci. 2015 16 4 ||| ref 33 = [33]; doi:10.1016/j.jff.2015.02.021; 33. Lammi C. Zanoni C. Arnoldi A. […], […], and LPYP, three peptides from soy glycinin, modulate cholesterol metabolism in HepG2 cells through the activation of the LDLR-SREBP2 pathway J. Fu ||| ref 34 = [34]; PMID 26310992; doi:10.1021/acs.jafc.5b03497; 34. Lammi C. Zanoni C. Arnoldi A. Vistoli G. Two Peptides from Soy β-Conglycinin Induce a Hypocholesterolemic Effect in HepG2 Cells by a Statin-Like Mechanism: Comparative in Vitro and in Silico Model ||| ref 11, 12 = [11]; PMID 29096438; doi:10.1021/acs.jafc.7b03590; 11. Aiello G. Lammi C. Boschin G. Zanoni C. Arnoldi A. Exploration of Potentially Bioactive Peptides Generated from the Enzymatic Hydrolysis of Hempseed Proteins J. Agric. Food Chem. 2017 65 10174 101 || [12]; PMID 28931275; doi:10.1021/acs.jafc.7b02742; 12. Zanoni C. Aiello G. Arnoldi A. Lammi C. Hempseed Peptides Exert Hypocholesterolemic Effects with a Statin-Like Mechanism J. Agric. Food Chem. 2017 65 8829 8838 10.1021/acs.jafc.7b02742 28931275; conditions: cited from earlier work
Source text: Th ... || CVD is a multifactorial pathology in which oxidative and inflammatory status as well as hypercholesterolemia are among the main risk factors.

SREBP-2 = assay: Western blot, mature and precursor SREBP-2 in HepG2 cells; type: cell-based, human; conditions: pravastatin 1.0 µM, 24 h, versus untreated
Method: as §1, §2, §3
µM of H3 for 24 h. After each treatment, the supernatants were collected and stored at -20 °C; cells were scraped in 40 µL ice-cold lysis buffer (RIPA buffer + inhibitor cocktail + 1:100 PMSF + 1:100 Na-orthovanadate + 1:1000 β-mercaptoethanol) and transferred in ice-cold microcentrifuge tubes. After centrifugation at 13,300 g for 15 min at 4 °C, the supernatants were recovered and transferred into new ice-cold tubes. For the mature SREBP-2 nuclear […]
for at 37 °C under 5% CO2 atmosphere for 24h. Therefore, cells were collected with PBS ice-cold and centrifuged 1500 rmp for 5 min at 4°C. The pellet was incubated with 20 µL of Nuclei Isolation Buffer A (10 mM HEPES pH 7.9, 1.5 mM MgCl2, 10 mM KCl, 0.2 mM EDTA, 0.1% β-mercaptoethanol, 0.5 mM PMSF, 0.1 % NP-40, one cOmplete™ Mini, EDTA-free Protease Inhibitor Cocktail) on ice for 10 min and then centrifuged 12000 rpm for 10 min at 4°C. Subsequently, the pellet was incubated with 20 µL of Nuclei Isolation Buffer B (20 mM HEPES […]
0.5 mM PMSF, 0.42 M NaCl, one cOmplete™ Mini, EDTA-free Protease Inhibitor Cocktail) on ice for 20 min and then centrifuged 12000 rpm for 10 min at 4°C and the supernatant was collected (nucleus isolate). Total proteins were quantified […]
as §7, with “anti-β-actin. Secondary antibodies conjugated with HRP and a chemiluminescent reagent were used to visualize target proteins and their signal was quantified using the Image Lab Software (Biorad, Hercules,” for “anti-β-actin.”

AMPK [7] = assay: Western blot, p-AMPK (threonine 172) in HepG2 cells; type: cell-based, human; conditions: pravastatin 1.0 µM, 24 h, versus control; p < 0.05; mean ± S.D., three independent experiments in duplicate
Method: as §1, §2, §3, §4, §5, §6, §7

AMPK [8] = conditions: cited from earlier work
Source text: Furthermore, it is also known that statins are able to activate AMPK [44] with the consequence of a synergistic inhibition of HMGCoAR activity, its direct target. In agreement with these evidences, our results provide a clear indication that, similarly to statins, peptide H3 increases the phosphorylation level of AMPK at the Thr172 residue of the catalytic subunit, which in turn produces an inhibition of ...

[9] = from soybean glycinin hydrolysis with pepsin, read-out: IC50, HMGCoAR (soybean glycinin peptides)
[10] = LTFPGSAED from lupin protein, VGVL from amaranth protein, hydrolysis with pepsin, read-out: IC50, HMGCoAR (literature peptides)
[11] = from soybean β-conglycinin, read-out: IC50, HMGCoAR (soybean β-conglycinin peptides)

CC[C@H](C)C(=O)O[C@H]1C[C@H](O)C=C2C=C[C@H](C)[C@H](CC[C@@H](O)C[C@@H](O)CC(=O)O)[C@H]21 [pravastatin]
LDL uptake (HepG2 cells): 226.9 ± 11.05%
HMGCoAR protein level (HMGCoAR [1]): 129.3 ± 9.33%
HNF1-α level (activation up to) (HNF1-α): 116.9 ± 3.21%
release of PCSK9 (increase up to) (PCSK9 [2]): 119.6 ± 1.18%
PCSK9 protein level (increase up to) (PCSK9 [3]): 118.8 ± 6.11%
LDLR protein level on cellular membrane (LDLR [4]): 127.3 ± 14.31%
phosphorylation level of HMGCoAR (serine 872) (p-HMGCoAR): 143.5 ± 4.64%
total LDLR protein level (LDLR [5]): 140.8 ± 15.35%
IC50 (HMGCoAR [6]; read-out: IC50, HMGCoAR (literature value for pravastatin)): 0.47 µM
precursor SREBP-2 (125 KDa) protein level (SREBP-2; cytoplasmic fraction, p < 0.05, Figure S2): 140.8 ± 9.0%
mature nuclear SREBP-2 (65 KDa) protein level (SREBP-2; nuclear fraction, p < 0.0001, mean ± S.D., three independent experiments in duplicate): 152.3 ± 8.2%
total mature SREBP-2 (65 KDa) protein level (SREBP-2; total lysate, p < 0.001, mean ± S.D., three independent experiments in duplicate): 134.9 ± 17.3%
AMPK phosphorylation (threonine 172) (AMPK [7]): 122.7 ± 5.23%

IAVPGEVA [peptide from soybean glycinin hydrolysis with pepsin]
mechanism of HMGCoAR inhibition (AMPK phosphorylation) (AMPK [8]; soybean peptides): share the same mechanism of HMGCoAR inhibition
IC50 (HMGCoAR [6]; [9]): 222 µM

IAVPTGVA [peptide from soybean glycinin hydrolysis with pepsin]
mechanism of HMGCoAR inhibition (AMPK phosphorylation) (AMPK [8]; soybean peptides): share the same mechanism of HMGCoAR inhibition
IC50 (HMGCoAR [6]; [9]): 247 µM

LILPKHSDAD [peptide from lupin protein hydrolysis with pepsin]
mechanism of HMGCoAR inhibition (AMPK phosphorylation) (AMPK [8]; lupin peptides): share the same mechanism of HMGCoAR inhibition

LPYP [peptide from soybean glycinin hydrolysis with pepsin]
mechanism of HMGCoAR inhibition (AMPK phosphorylation) (AMPK [8]; soybean peptides): share the same mechanism of HMGCoAR inhibition
IC50 (HMGCoAR [6]; [9]): 300 µM

LTFPGSAED [peptide from lupin protein hydrolysis with pepsin]
mechanism of HMGCoAR inhibition (AMPK phosphorylation) (AMPK [8]; lupin peptides): share the same mechanism of HMGCoAR inhibition
IC50 (HMGCoAR [6]; [10]): 68.4 µM

VGVL [peptide from amaranth protein hydrolysis with pepsin]
IC50 (HMGCoAR [6]; [10]): 50 µM

YVVNPDNDEN [peptide from soybean β-conglycinin]
IC50 (HMGCoAR [6]; [11]): 150 µM

YVVNPDNNEN [peptide from soybean β-conglycinin]
IC50 (HMGCoAR [6]; [11]): 200 µM
